7 compounds from patent US5952307A, “Basic α-aminoalkylphosphonate derivatives” (priority 1997, dated 1999) can be followed below.

What all share (type): biochemical
Experiment [1] deals with T1, human granzyme A (Homo sapiens, UniProt P12544).
T1 sequence (P12544 29-262): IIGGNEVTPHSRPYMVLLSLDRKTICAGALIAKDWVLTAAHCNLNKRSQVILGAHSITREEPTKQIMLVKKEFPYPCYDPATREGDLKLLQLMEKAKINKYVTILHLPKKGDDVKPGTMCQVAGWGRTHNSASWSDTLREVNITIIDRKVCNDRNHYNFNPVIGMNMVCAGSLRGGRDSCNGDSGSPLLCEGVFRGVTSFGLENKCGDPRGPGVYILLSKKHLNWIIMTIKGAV
In words: Inactivation rate of human granzyme A, incubation method. The following applies: Table I; 0.1M Hepes, 0.01M CaCl2 pH 7.5, 25° C., 7.6% DMSO, substrate Z--Arg--SBzl. The procedure:
(§1) Inactivation rates of serine proteases by aryl diesters of peptidyl derivatives of α-aminoalkylphosphonates were measured by the incubation method. An aliquot of inhibitor (25 or 50 μl) in Me2 SO was added to a buffered enzyme solution (0.01-2.3 μM) to initiate the inactivation. Aliquots (50 μl) were withdrawn at various intervals and the residual enzymatic activity was measured. Me2 SO concentration in the reaction mixture was 8-12% (v/v). A 0.1 M HEPES, 0.01 M CaCl2, pH 7.5 buffer was utilized for trypsin and trypsin-like enzymes. A 0.1 M HEPES, 0.5 M NaCl, pH 7.5, was utilized for the other serine proteases. Peptide thioesters or peptide nitroanilides with the appropriate sequences were used as substrates for various serine proteases. All peptide thioesters hydrolysis rates were measured with the assay mixture containing 4,4'-dithiodipyridine {ε324 =19800 M^-1 cm^-1; Grasetti & Murray, Arch. Biochem. Biophys. 1967, 119, 41-48}. Peptide 4-nitroanilide hydrolysis was measured at 410 nm {ε410 =8800 M^-1 cm^-1; Erlanger et al., Arch. Biochem. Biophys. 1961, 95, 271-278}. First order inactivation rate constants (Kobs) were obtained from plots of In vt /vo vs time, and the correlation coefficients were greater then 0.98.
(§2) ^a Inhibition constants were measured in 0.1M Hepes, 0.01M CaCl2
(§3) pH 7.5 for trypsin, granzymes A, and K, and in 0.1M Hepes, 10% glycerol,
(§4) 10 mM heparin, pH 7.5 for mast cell tryptase, and at 25° C. The
(§5) reaction mixtures contained 2% DMSO for trypsin, 7.6% for granzyme A, and
(§6) 7.1% for granzyme K and tryptase. The substrate was Z--Arg--SBzl for
(§7) granzymes and trypsin, and Z--Arg--SBzl or Z--Lys--SBzl for tryptase in
(§8) the presence of DTNB. The inhibitor # concentration ranged from 0.001 to
(§9) ^b NI, no inhibition after 25 min of incubation with enzyme.

The target in experiment [2] is T2, rat granzyme K (Rattus norvegicus, UniProt P49864).
T2 sequence (P49864 26-258): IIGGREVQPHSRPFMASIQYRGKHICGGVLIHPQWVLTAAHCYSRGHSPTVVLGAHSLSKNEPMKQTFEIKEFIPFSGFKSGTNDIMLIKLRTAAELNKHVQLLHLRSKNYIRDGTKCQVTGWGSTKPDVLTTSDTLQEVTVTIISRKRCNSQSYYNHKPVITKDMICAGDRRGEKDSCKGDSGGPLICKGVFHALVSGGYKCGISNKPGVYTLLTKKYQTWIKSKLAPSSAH
In words: Inactivation rate of rat granzyme K, incubation method. The following applies: Table I; 0.1M Hepes, 0.01M CaCl2 pH 7.5, 25° C., 7.1% DMSO, substrate Z--Arg--SBzl; NI = no inhibition after 25 min of incubation. The protocol: as §1, §2, §3, §4, §5, §6, §7, §8, §9

In experiment [3] the target is mast cell tryptase (Homo sapiens, UniProt Q15661). In words: Inactivation rate of mast cell tryptase, incubation method. The following applies: for kobsd /[I] mast cell tryptase: Table I, 0.1M Hepes, 10% glycerol, 10 mM heparin, pH 7.5, 25° C., 7.1% DMSO, NI = no inhibition after 25 min of incubation; for kobs /[I] mast cell tryptase: Table II, 0.07 μM tryptase, 20-66 μM inhibitor, Hepes pH 7.5, heparin, 9% glycerol, 8% DMSO, 25° C., NI = no inhibition. The procedure:
as §1, §2, §3, §4, §5, §6, §7, §8, §9
(§10) ^a Enzyme was incubated with the inhibitor in 250 μL of the proper
(§11) containing 428 mM NaCl and 8% DMSO; 0.07 μM tryptase, 20-66 μM
inhibitor # in an mM Hepes, pH 7.5 buffer containing 8 mM heparin, 166 m
NaCl, 0.8 mM Mes, 9% glycerol and 8% DMSO; 0.42 μM factor Xa, 66 μM
(§12) DMSO. Aliquots of 25 μL were withdrawn at various intervals and the
(§13) residual enzymatic activity was measured as described in experimental
(§14) section. The kobs values were calculated from pseudofirst-order
(§15) ^a Enzyme (0.06-0.5 μM) was incubated with the inhibitor (0.25-42
(§16) μM) in 250 μL of the proper buffer containing 9% DMSO at 25°
(§17) C. The final inhibition reaction mixtures are given in the footnote to
(§18) Table 1. Aliquots of 25 μL were withdrawn at various intervals and the […]

For experiment [4], the target named is T3, bovine trypsin (Bos taurus, UniProt P00760).
T3 sequence (P00760 24-246): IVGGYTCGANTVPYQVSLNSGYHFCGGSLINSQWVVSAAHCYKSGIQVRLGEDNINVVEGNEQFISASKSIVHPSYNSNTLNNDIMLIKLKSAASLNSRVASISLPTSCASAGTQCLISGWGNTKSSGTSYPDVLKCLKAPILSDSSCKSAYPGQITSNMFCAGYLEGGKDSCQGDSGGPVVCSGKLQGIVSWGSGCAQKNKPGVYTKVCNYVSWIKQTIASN
In words: Inactivation rate of bovine trypsin, incubation method. The following applies: for kobsd /[I] bovine trypsin: Table I, 0.1M Hepes, 0.01M CaCl2 pH 7.5, 25° C., 2% DMSO, substrate Z--Arg--SBzl, NI = no inhibition after 25 min; for kobs /[I] bovine trypsin: Table II, 0.13 μM trypsin, 0.25-42 μM inhibitor, 80 mM Hepes pH 7.5, 1 mM CaCl2, 8% DMSO, 25° C., NI = no inhibition. The procedure: as §1, §2, §3, §4, §5, §6, §7, §8, §9, §10
(§19) buffer at 25° C. Specifically, the inhibition reation mixtures wer
composed of: 0.13 μM trypsin, 0.25-42 μM inhibitor in an 80 mM
(§20) Hepes, pH 7.5 buffer containing 1 mM CaCl2 and 8% DMSO; 0.07 μM
as §12, §13, §14, §15, §16, §17, §18

Experiment [5] deals with T4, human thrombin (Homo sapiens, UniProt P00734).
T4 construct: bovine trypsin, human thrombin
The following applies: Table II; 0.07 μM thrombin, 0.25-42 μM inhibitor, 80 mM Hepes pH 7.5, 428 mM NaCl, 8% DMSO, 25° C.; NI = no inhibition. The protocol: as §1, with “271-278}.” for “271-278}. First order inactivation rate constants (Kobs) were obtained from plots of In vt /vo vs time, and the correlation coefficients were greater then 0.98.”
as §10, §19, §20
thrombin, 0.25-42 μM inhibitor in an 80 mM Hepes, pH 7.5 buffer
as §11, §12, §13, §14, §15, §16, §17, §18

Sequence of mast cell tryptase (Q15661 31-275): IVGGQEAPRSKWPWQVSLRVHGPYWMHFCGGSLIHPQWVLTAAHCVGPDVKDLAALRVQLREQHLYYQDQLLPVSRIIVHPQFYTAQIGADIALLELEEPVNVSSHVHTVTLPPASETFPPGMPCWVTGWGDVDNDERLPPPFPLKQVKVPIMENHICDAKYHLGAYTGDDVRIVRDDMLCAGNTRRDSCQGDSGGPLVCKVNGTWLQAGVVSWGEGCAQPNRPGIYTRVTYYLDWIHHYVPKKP

Consider `CC(NC(=O)C(Cc1ccccc1)NC(=O)OCc1ccccc1)C(=O)NC(c1ccc(C(=N)N)cc1)P(=O)(Oc1ccccc1)Oc1ccccc1` (mixture of isomers) [Cbz--Phe--Ala-(4-AmPhGly)^P (OPh)2], for which, in experiment [1], the “kobsd /[I] human granzyme A” value came to 1770 ± 13 M⁻¹ s⁻¹. In addition, the “kobsd /[I] rat granzyme K” value in experiment [2] was determined as 4.2 ± 0.3 M⁻¹ s⁻¹. Also, in experiment [3], the “kobsd /[I] mast cell tryptase” value is 4 M⁻¹ s⁻¹ and the “kobs /[I] mast cell tryptase” value worked out at 4.0 ± 0.3 M⁻¹ s⁻¹. In addition, in experiment [4], the “kobsd /[I] bovine trypsin” value was 3010 ± 318 M⁻¹ s⁻¹ and the “kobs /[I] bovine trypsin” value is 3,010 ± 318 M^-1 s^-1. In addition, in experiment [5], the “kobs /[I] human thrombin” value was 1,150 ± 88 M^-1 s^-1.

As to `CC(NC(=O)C(CC(=O)O)NC(=O)OCc1ccccc1)C(=O)NC(c1ccc(C(=N)N)cc1)P(=O)(Oc1ccccc1)Oc1ccccc1` (mixture of isomers) [Cbz--Asp--Ala-(4-AmPhGly)^P (OPh)2], the “kobsd /[I] human granzyme A” value in experiment [1] came out at 240 ± 5 M⁻¹ s⁻¹. The “kobsd /[I] rat granzyme K” value in experiment [2] is 6 M⁻¹ s⁻¹. For the same compound, the “kobsd /[I] mast cell tryptase” value in experiment [3] came out at 0.7 M⁻¹ s⁻¹. Further, in experiment [4], the “kobsd /[I] bovine trypsin” value was found to be 2550 ± 145 M⁻¹ s⁻¹ and the “kobs /[I] bovine trypsin” value was 2,550 ± 145 M^-1 s^-1. Moreover, the “kobs /[I] human thrombin” value in experiment [5] was found to be 110 ± 12 M⁻¹ s⁻¹.

Consider `Cl.N=C(N)c1ccc(C(NC(=O)[C@@H]2CCCN2C(=O)c2ccccc2Oc2ccccc2)P(=O)(Oc2ccccc2)Oc2ccccc2)cc1` (some centres unmarked) [Diphenyl N-(N-(2-Phenoxybenzoylprolyl))amino(4-amidinophenyl)methanephosphonate Hydrochloride], for which the “kobsd /[I] human granzyme A” value in experiment [1] was found to be 610 ± 88 M⁻¹ s⁻¹. Also, in experiment [2], the “kobsd /[I] rat granzyme K” value came out at 60 ± 5 M⁻¹ s⁻¹. Besides, in experiment [3], the “kobsd /[I] mast cell tryptase” value turned out to be 0.9 M⁻¹ s⁻¹ and the “kobs /[I] mast cell tryptase” value was 0.9 M⁻¹ s⁻¹. In experiment [4], the “kobsd /[I] bovine trypsin” value came to 7760 ± 310 M⁻¹ s⁻¹ and the “kobs /[I] bovine trypsin” value is 7,760 ± 310 M^-1 s^-1. Also, the “kobs /[I] human thrombin” value in experiment [5] is 42,400 ± 4190 M^-1 s^-1.

Consider `C[C@H](NC(=O)[C@@H]1CCCN1C(=O)OCc1ccccc1)C(=O)NC(c1ccc(C(=N)N)cc1)P(=O)(Oc1ccccc1)Oc1ccccc1` (some centres unmarked) [Cbz--Pro--Ala-(4-AmPhGly)^P (OPh)2], for which the “kobsd /[I] human granzyme A” value in experiment [1] turned out to be 380 ± 18 M⁻¹ s⁻¹. In addition, the “kobsd /[I] rat granzyme K” value in experiment [2] was determined as 5 M⁻¹ s⁻¹. Further, in experiment [3], the “kobsd /[I] mast cell tryptase” value amounted to 1 M⁻¹ s⁻¹ and the “kobs /[I] mast cell tryptase” value came to 1 ± 0 M⁻¹ s⁻¹. Besides, in experiment [4], the “kobsd /[I] bovine trypsin” value turned out to be 240 ± 10 M⁻¹ s⁻¹ and the “kobs /[I] bovine trypsin” value amounted to 240 ± 10 M⁻¹ s⁻¹. The “kobs /[I] human thrombin” value in experiment [5] is 70 ± 2 M⁻¹ s⁻¹.

As for `Cl.N=C(N)c1ccc(C(NC(=O)[C@@H]2CCCN2C(=O)OCc2ccccc2)P(=O)(Oc2ccccc2)Oc2ccccc2)cc1` (some centres unmarked) [Cbz--Pro-(4-AmPhGly)^P (OPh)2, Diphenyl N-(N-benzyloxycarbonylprolyl)amino(4-amidinophenyl)methanephosphonate hydrochloride], the “kobsd /[I] human granzyme A” value in experiment [1] came out at 790 ± 17 M⁻¹ s⁻¹. In experiment [2], the “kobsd /[I] rat granzyme K” value was 34 ± 4 M⁻¹ s⁻¹. In experiment [3], the “kobsd /[I] mast cell tryptase” value came out at 1.2 M⁻¹ s⁻¹ and the “kobs /[I] mast cell tryptase” value amounted to 1 M⁻¹ s⁻¹. Besides, in experiment [4], the “kobsd /[I] bovine trypsin” value amounted to 910 ± 81 M⁻¹ s⁻¹ and the “kobs /[I] bovine trypsin” value turned out to be 910 ± 81 M⁻¹ s⁻¹. In addition, the “kobs /[I] human thrombin” value in experiment [5] was determined as 640 ± 86 M⁻¹ s⁻¹.

`CC(C)(C)OC(=O)N[C@H](Cc1ccccc1)C(=O)N1CCC[C@H]1C(=O)NC(c1ccc(C(=N)N)cc1)P(=O)(Oc1ccccc1)Oc1ccccc1.Cl` (stereo partly drawn) [Boc--D--Phe--Pro-(4-AmPhGly)^P (OPh)2, Diphenyl N-(Boc-D-Phe-Pro)amino(4-amidinophenyl)methanephosphonate hydrochloride]: in experiment [1], the “kobsd /[I] human granzyme A” value turned out to be 170 M⁻¹ s⁻¹. Moreover, the “kobsd /[I] rat granzyme K” value in experiment [2] was found to be 56 ± 2 M⁻¹ s⁻¹. Besides, the “kobsd /[I] mast cell tryptase” value in experiment [3] was 0.4 M⁻¹ s⁻¹. In addition, in experiment [4], the “kobsd /[I] bovine trypsin” value was determined as 130 M⁻¹ s⁻¹ and the “kobs /[I] bovine trypsin” value is 2,200 M^-1 s^-1. In experiment [5], the “kobs /[I] human thrombin” value is 11,000 M^-1 s^-1.

`N=C(N)c1ccc(C(NC(=O)C2CCCN2C(=O)CNS(=O)(=O)Cc2ccccc2)P(=O)(Oc2ccccc2)Oc2ccccc2)cc1` (mixture of isomers) [PhCH2 SO2 --Gly--Pro-(4-AmPhGly)^P (OPh)2]: the “kobsd /[I] human granzyme A” value in experiment [1] is 3650 ± 180 M⁻¹ s⁻¹. Besides, the “kobsd /[I] rat granzyme K” value in experiment [2] was determined as 87 M⁻¹ s⁻¹. Also, in experiment [3], the “kobsd /[I] mast cell tryptase” value is 2 M⁻¹ s⁻¹ and the “kobs /[I] mast cell tryptase” value was found to be 2.0 ± 0.1 M⁻¹ s⁻¹. Moreover, in experiment [4], the “kobsd /[I] bovine trypsin” value was determined as 37060 ± 986 M⁻¹ s⁻¹ and the “kobs /[I] bovine trypsin” value is 37,060 ± 986 M^-1 s^-1. Also, the “kobs /[I] human thrombin” value in experiment [5] was 17,200 ± 128 M^-1 s^-1.
